Test results: the NIST ThermoML archive (doi:10.1021/je800026p)
± gives the expanded uncertainty stated by the source.

Assay: xn = mol fraction of the nth substance listed
Conditions: 101 kPa, Liquid; for speed of sound: Sing-around technique in a fixed-path interferometer; for mass density: Vibrating tube method

CCCCCCOCCOCCO [2-(2-hexyloxyethoxy)ethanol] + CCCCN(CCCC)CCCC
Conditions	mass density, 288.15 K [kg/m3]	mass density, 293.15 K [kg/m3]	mass density, 298.15 K [kg/m3]	mass density, 303.15 K [kg/m3]	mass density, 308.15 K [kg/m3]	speed of sound, 288.15 K [m/s]	speed of sound, 293.15 K [m/s]	speed of sound, 298.15 K [m/s]	speed of sound, 303.15 K [m/s]	speed of sound, 308.15 K [m/s]
x1 = 0.1168	797.427 ± 0.62	793.696 ± 0.62	789.759 ± 0.62	785.812 ± 0.61	782.055 ± 0.61	1294 ± 2.1	1274.9 ± 2.1	1256 ± 2.1	1237.3 ± 2.1	1219 ± 2.1
x1 = 0.1659	804.49 ± 0.63	800.716 ± 0.63	796.756 ± 0.62	792.8 ± 0.62	788.975 ± 0.62	1298.2 ± 2.1	1279.2 ± 2.1	1260.3 ± 2.1	1241.7 ± 2.1	1223.4 ± 2.1
x1 = 0.2092	810.815 ± 0.64	806.993 ± 0.63	803.027 ± 0.63	799.078 ± 0.63	795.2 ± 0.62	1302.1 ± 2.1	1283.1 ± 2.1	1264.3 ± 2.1	1245.8 ± 2.1	1227.5 ± 2.1
x1 = 0.2589	818.158 ± 0.64	814.291 ± 0.64	810.334 ± 0.64	806.371 ± 0.63	802.458 ± 0.63	1306.8 ± 2.1	1287.9 ± 2.1	1269.2 ± 2.1	1250.8 ± 2.1	1232.5 ± 2.1
x1 = 0.3155	826.596 ± 0.65	822.69 ± 0.65	818.738 ± 0.64	814.795 ± 0.64	810.825 ± 0.64	1312.6 ± 2.1	1293.8 ± 2.1	1275.2 ± 2.1	1256.8 ± 2.1	1238.6 ± 2.1
x1 = 0.3564	832.755 ± 0.66	828.829 ± 0.65	824.867 ± 0.65	820.924 ± 0.65	816.944 ± 0.64	1316.9 ± 2.1	1298.2 ± 2.1	1279.7 ± 2.1	1261.4 ± 2.1	1243.2 ± 2.1
x1 = 0.383	836.791 ± 0.66	832.842 ± 0.66	828.881 ± 0.65	824.93 ± 0.65	820.957 ± 0.65	1319.8 ± 2.1	1301.2 ± 2.1	1282.7 ± 2.1	1264.5 ± 2.1	1246.4 ± 2.1
x1 = 0.4544	847.683 ± 0.67	843.729 ± 0.67	839.761 ± 0.66	835.783 ± 0.66	831.821 ± 0.66	1328 ± 2.1	1309.5 ± 2.1	1291.2 ± 2.1	1273.2 ± 2.1	1255.2 ± 2.1
x1 = 0.5108	856.418 ± 0.68	852.463 ± 0.68	848.467 ± 0.67	844.479 ± 0.67	840.528 ± 0.67	1334.9 ± 2.1	1316.5 ± 2.1	1298.3 ± 2.1	1280.4 ± 2.1	1262.6 ± 2.1
x1 = 0.5568	863.63 ± 0.69	859.691 ± 0.68	855.668 ± 0.68	851.665 ± 0.68	847.701 ± 0.67	1340.7 ± 2.1	1322.4 ± 2.1	1304.3 ± 2.1	1286.5 ± 2.1	1268.8 ± 2.1
x1 = 0.6107	872.206 ± 0.7	868.299 ± 0.69	864.217 ± 0.69	860.198 ± 0.68	856.228 ± 0.68	1347.7 ± 2.1	1329.6 ± 2.1	1311.6 ± 2.1	1294 ± 2.1	1276.4 ± 2.1
x1 = 0.6683	881.543 ± 0.71	877.641 ± 0.7	873.531 ± 0.7	869.475 ± 0.69	865.486 ± 0.69	1355.6 ± 2.1	1337.5 ± 2.1	1319.7 ± 2.1	1302.2 ± 2.1	1284.8 ± 2.1
x1 = 0.6924	885.505 ± 0.71	881.587 ± 0.71	877.468 ± 0.7	873.41 ± 0.7	869.396 ± 0.69	1358.9 ± 2.1	1340.9 ± 2.1	1323.2 ± 2.1	1305.8 ± 2.1	1288.4 ± 2.1
x1 = 0.7544	895.808 ± 0.72	891.893 ± 0.72	887.746 ± 0.71	883.674 ± 0.71	879.592 ± 0.7	1367.8 ± 2.1	1350 ± 2.1	1332.3 ± 2.1	1315.2 ± 2.1	1297.8 ± 2.1
x1 = 0.7963	902.873 ± 0.73	898.935 ± 0.72	894.791 ± 0.72	890.73 ± 0.71	886.574 ± 0.71	1373.9 ± 2.1	1356.2 ± 2.1	1338.7 ± 2.1	1321.6 ± 2.1	1304.4 ± 2.1
x1 = 0.858	913.335 ± 0.74	909.366 ± 0.73	905.245 ± 0.73	901.206 ± 0.73	896.983 ± 0.72	1383.2 ± 2.1	1365.7 ± 2.1	1348.3 ± 2.1	1331.5 ± 2.1	1314.2 ± 2.1
x1 = 0.9079	921.784 ± 0.75	917.773 ± 0.74	913.7 ± 0.74	909.674 ± 0.73	905.434 ± 0.73	1390.9 ± 2.1	1373.6 ± 2.1	1356.4 ± 2.1	1339.6 ± 2.1	1322.3 ± 2.1
x1 = 0.9553	929.676 ± 0.76	925.674 ± 0.75	921.63 ± 0.75	917.622 ± 0.74	913.46 ± 0.74	1398.4 ± 2.1	1381.3 ± 2.1	1364.2 ± 2.1	1347.6 ± 2.1	1330.2 ± 2.1
